Data from ChEMBL document CHEMBL1148572, “1-((S)-2-aminopropyl)-1H-indazol-6-ol: a potent peripherally acting 5-HT2 receptor agonist with ocular hypotensive activity” (J Med Chem, 2006).

Tests used:
[1] = molecular target: Glutamate [NMDA] receptor (Homo sapiens) (UniProt Q05586+Q12879+Q13224+O15399+O60391+Q14957+Q8TCU5); assay: Inhibition of MK-801 site of glutamate receptor at 10 uM; assay type: protein-complex assay
[2] = molecular target: T1, B2 bradykinin receptor (Homo sapiens) (UniProt P30411); assay: Inhibition of bradykinin 2 receptor at 1 nM
T1 sequence (whole entry): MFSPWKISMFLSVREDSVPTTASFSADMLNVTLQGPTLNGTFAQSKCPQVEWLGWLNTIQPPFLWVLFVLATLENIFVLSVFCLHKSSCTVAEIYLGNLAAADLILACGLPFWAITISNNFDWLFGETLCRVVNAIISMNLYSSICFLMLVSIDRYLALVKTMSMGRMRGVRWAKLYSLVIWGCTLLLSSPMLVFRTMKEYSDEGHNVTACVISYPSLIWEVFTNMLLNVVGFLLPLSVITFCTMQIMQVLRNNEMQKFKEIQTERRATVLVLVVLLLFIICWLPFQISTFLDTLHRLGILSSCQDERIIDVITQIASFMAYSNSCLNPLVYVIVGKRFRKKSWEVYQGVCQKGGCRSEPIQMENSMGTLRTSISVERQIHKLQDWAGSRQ

[3] = molecular target: T1, B2 bradykinin receptor (Homo sapiens); assay: Inhibition of bradykinin 2 receptor at 100 nM
[4] = molecular target: T2, Adenosine receptor (Homo sapiens) (UniProt P30542+P29275+P0DMS8+P29274); assay: Inhibition of non selective binding to adenosine receptor at 1 nM; assay type: protein assay
[5] = molecular target: Muscarinic acetylcholine receptor (Homo sapiens) (UniProt P20309+P08173+P11229+P08172+P08912); assay: Inhibition of non selective binding to muscarinic receptor at 100 nM; assay type: protein assay
[6] = molecular target: T3, Alpha-2C adrenergic receptor (Homo sapiens, UniProt P18825); assay: Activity at adrenergic Alpha-2C receptor expressed in rat-mouse hybrid […] cell by adenylyl cyclase assay; assay type: functional, cell-based
T3 sequence (P18825 whole entry): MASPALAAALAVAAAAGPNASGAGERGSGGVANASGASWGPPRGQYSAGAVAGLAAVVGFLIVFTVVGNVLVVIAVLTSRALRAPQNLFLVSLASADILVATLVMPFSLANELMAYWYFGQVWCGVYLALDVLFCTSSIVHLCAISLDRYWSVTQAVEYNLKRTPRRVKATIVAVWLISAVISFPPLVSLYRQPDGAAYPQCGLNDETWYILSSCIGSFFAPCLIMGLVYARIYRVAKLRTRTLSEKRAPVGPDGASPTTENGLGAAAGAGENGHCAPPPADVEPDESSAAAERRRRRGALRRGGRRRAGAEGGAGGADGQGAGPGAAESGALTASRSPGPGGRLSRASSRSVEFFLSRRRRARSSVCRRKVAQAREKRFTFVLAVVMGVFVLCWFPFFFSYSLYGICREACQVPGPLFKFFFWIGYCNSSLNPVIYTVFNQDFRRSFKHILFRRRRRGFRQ

[7] = molecular target: Leukotriene B4 receptor (Homo sapiens) (UniProt Q9NPC1+Q15722); assay: Inhibition of leukotriene B4 at 10 uM; assay type: protein assay
[8] = molecular target: T2, Adenosine receptor (Homo sapiens); assay: Inhibition of non selective binding to adenosine receptor at 100 nM; assay type: protein assay
[9] = molecular target: T4, monoamine oxidase B (MAO-B) (Rattus norvegicus, UniProt P19643); assay: Inhibition of monoamine oxidase B in rat brain at 100 nM; assay type: tissue-based
T4 sequence (P19643 whole entry): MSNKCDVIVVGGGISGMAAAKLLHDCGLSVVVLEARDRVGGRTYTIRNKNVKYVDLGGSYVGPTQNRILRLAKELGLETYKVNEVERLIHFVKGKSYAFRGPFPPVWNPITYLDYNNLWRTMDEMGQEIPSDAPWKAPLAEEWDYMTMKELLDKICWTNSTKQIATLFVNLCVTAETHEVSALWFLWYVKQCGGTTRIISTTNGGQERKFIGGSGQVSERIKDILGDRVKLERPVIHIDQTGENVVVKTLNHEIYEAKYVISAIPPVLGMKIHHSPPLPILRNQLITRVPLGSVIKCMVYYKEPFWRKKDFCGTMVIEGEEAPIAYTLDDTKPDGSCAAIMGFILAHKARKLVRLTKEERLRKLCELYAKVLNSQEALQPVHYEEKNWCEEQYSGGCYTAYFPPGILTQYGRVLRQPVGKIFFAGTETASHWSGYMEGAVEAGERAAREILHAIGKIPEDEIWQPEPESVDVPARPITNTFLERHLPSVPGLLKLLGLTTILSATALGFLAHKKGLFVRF

[10] = molecular target: Alpha-1A adrenergic receptor (Homo sapiens, UniProt P35348); assay: Inhibitory activity against adrenergic alpha-1A receptor
[11] = molecular target: 5-hydroxytryptamine receptor 2B (Rattus norvegicus, UniProt P30994); assay: Activity against 5HT2B receptor in longitudinal stomach fundus strips in wistar rats
[12] = Inhibitory activity at TBOB site in GABA gated chloride channel at 1 nM
[13] = molecular target: Estrogen receptor (Homo sapiens) (UniProt Q92731+P03372); assay: Inhibition of estrogen receptor at 1 nM; assay type: protein assay
[14] = molecular target: T4, monoamine oxidase B (MAO-B); assay: Inhibition of monoamine oxidase B in rat brain at 10 uM; assay type: tissue-based
[15] = molecular target: Dopamine receptor (Homo sapiens) (UniProt P14416+P35462+P21918+P21917+P21728); assay: Inhibition of non selective binding to dopamine receptor at 10 uM; assay type: protein assay
[16] = molecular target: T5, Type-1 angiotensin II receptor (Homo sapiens) (UniProt P30556); assay: Inhibition of type 1 angiotensin 2 receptor at 1 nM
T5 sequence (whole entry): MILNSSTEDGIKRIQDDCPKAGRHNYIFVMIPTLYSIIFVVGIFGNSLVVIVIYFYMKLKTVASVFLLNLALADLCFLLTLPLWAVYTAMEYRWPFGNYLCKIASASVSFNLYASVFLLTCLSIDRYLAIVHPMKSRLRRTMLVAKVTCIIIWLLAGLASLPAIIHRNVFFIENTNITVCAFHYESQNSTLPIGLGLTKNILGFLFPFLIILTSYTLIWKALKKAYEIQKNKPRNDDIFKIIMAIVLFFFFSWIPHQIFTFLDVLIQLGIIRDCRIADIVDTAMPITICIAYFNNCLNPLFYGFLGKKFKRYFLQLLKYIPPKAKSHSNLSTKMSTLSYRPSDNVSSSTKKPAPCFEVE

[17] = molecular target: 5-hydroxytryptamine receptor 1B (Homo sapiens, UniProt P28222); assay: Inhibitory activity against 5HT1B receptor
Sequence of 5-hydroxytryptamine receptor 1B (P28222 whole entry): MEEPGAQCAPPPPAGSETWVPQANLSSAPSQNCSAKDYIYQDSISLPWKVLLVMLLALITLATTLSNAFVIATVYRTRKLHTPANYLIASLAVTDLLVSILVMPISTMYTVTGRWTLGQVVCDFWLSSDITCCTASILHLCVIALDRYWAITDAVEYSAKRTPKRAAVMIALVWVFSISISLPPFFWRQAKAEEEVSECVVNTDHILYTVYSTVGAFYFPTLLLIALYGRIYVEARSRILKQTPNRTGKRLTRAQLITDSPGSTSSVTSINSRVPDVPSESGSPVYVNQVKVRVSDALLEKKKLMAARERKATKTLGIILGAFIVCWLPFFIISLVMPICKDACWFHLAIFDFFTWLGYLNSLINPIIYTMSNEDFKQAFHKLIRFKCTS

T2 sequence (P0DMS8 whole entry, looked up): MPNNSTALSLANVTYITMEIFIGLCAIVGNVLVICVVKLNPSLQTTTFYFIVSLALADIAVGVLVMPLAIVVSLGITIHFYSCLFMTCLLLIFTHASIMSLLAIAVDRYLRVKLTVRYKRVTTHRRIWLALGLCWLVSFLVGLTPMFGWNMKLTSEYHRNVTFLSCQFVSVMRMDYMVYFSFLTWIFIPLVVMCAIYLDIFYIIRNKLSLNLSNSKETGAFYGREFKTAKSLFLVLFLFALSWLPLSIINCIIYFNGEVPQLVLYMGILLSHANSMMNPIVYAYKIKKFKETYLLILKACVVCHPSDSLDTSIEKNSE
T2 sequence (P29274 whole entry, looked up): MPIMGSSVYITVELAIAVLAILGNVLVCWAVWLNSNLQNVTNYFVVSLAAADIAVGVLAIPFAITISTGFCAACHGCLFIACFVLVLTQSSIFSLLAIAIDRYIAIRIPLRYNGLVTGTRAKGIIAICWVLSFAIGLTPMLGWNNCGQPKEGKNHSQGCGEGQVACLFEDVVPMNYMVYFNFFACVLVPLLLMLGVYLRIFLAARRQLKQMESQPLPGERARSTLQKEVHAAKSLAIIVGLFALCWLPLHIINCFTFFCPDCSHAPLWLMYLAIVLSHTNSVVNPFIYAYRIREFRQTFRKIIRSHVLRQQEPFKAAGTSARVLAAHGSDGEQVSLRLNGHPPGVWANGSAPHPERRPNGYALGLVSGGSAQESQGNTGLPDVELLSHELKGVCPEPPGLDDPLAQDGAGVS
T2 sequence (P29275 whole entry, looked up): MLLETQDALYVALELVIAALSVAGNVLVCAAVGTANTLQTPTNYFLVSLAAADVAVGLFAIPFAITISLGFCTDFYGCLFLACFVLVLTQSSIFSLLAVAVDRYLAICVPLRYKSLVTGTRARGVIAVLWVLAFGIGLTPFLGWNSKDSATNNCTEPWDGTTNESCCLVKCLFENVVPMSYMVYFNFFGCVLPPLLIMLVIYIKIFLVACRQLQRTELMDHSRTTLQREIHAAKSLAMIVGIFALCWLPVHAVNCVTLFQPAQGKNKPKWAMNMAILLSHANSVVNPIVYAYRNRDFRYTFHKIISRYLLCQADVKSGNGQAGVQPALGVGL
T2 sequence (P30542 whole entry, looked up): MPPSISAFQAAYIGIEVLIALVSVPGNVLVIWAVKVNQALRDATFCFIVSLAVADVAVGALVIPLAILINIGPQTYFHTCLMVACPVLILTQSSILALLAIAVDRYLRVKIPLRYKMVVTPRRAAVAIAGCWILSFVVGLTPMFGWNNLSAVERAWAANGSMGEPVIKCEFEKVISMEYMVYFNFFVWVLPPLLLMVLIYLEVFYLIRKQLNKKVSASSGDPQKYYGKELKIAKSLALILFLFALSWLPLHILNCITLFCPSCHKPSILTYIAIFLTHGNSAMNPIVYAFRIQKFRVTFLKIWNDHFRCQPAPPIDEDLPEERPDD
Sequence of Alpha-1A adrenergic receptor (P35348 whole entry): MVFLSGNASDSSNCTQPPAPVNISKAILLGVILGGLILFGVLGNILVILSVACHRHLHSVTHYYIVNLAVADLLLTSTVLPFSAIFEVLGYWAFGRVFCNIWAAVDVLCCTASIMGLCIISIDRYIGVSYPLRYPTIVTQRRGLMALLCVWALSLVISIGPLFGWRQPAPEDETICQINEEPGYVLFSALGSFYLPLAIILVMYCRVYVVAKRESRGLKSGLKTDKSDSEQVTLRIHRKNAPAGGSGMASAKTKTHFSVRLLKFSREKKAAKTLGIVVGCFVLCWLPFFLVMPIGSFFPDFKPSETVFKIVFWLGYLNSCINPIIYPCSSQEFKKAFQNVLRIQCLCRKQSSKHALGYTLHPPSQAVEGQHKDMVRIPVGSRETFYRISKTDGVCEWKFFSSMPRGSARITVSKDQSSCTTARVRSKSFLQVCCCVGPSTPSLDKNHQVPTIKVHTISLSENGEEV
Sequence of Leukotriene B4 receptor (Homo sapiens) (Q15722 whole entry, looked up): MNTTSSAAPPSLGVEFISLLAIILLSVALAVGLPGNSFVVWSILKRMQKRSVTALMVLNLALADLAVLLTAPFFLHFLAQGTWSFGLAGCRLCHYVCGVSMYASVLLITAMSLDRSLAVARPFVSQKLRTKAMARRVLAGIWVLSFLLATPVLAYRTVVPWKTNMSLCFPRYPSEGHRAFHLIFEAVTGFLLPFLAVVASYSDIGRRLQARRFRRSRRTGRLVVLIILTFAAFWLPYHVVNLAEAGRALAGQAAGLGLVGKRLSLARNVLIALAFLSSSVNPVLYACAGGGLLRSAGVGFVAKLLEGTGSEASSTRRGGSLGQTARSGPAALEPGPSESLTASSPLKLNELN
Sequence of Leukotriene B4 receptor (Homo sapiens) (Q9NPC1 whole entry, looked up): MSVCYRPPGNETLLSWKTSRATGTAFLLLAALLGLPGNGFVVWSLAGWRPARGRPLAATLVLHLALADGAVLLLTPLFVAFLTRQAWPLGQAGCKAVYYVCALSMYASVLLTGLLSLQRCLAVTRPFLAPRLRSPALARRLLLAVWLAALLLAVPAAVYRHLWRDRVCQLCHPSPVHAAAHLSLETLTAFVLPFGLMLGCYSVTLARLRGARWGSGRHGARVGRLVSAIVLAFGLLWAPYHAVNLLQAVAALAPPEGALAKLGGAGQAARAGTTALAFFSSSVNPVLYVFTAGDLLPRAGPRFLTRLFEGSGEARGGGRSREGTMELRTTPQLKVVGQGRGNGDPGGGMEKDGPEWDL
Sequence of 5-hydroxytryptamine receptor 2B (P30994 whole entry): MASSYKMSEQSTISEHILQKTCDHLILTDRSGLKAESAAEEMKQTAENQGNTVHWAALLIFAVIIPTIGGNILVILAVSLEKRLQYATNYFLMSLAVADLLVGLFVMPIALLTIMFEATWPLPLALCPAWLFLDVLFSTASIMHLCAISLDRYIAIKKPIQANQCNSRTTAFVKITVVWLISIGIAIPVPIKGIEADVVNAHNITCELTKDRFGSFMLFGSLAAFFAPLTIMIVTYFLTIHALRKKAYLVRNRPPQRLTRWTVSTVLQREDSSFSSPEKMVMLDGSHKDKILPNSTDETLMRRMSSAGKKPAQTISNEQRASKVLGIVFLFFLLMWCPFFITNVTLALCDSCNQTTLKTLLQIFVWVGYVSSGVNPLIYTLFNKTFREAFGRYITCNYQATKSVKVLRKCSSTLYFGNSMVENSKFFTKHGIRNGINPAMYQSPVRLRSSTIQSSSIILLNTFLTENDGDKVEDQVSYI

SMILES: C[C@H](N)Cn1ncc2ccc(O)cc21
- inhibition [1]: 15.1%
- inhibition [2]: -6.46%
- inhibition [3]: 0.41%
- inhibition [4]: 11.2%
- inhibition [5]: 0.28%
- EC50 [6]: 10 µM
- inhibition [7]: 13%
- inhibition [8]: 13.6%
- inhibition at 0.1 µM [9]: -20%
- Ki [10]: > 30 µM
- EC50 [11]: 0.002 µM
- inhibition [12]: -3.75%
- inhibition [13]: 10.8%
- inhibition at 10 µM [14]: -18.4%
- inhibition [15]: 51.2%
- inhibition [16]: 5.26%
- Ki [17]: > 10 µM
